These results are taken from patent publication EP4603504A1, “NOVEL CATHEPSIN K AND L INHIBITORS” (ECOLE POLYTECHNIQUE FEDERALE DE LAUSANNE (EPFL), priority 2024, dated 2025).

Peptide text beside a SMILES is read from it.

Data set [1] has as its system panel of 7 different cysteine cathepsin proteases. Description: FRET assays on a panel of cathepsins (selectivity). In kind it is biochemical. To be noted: profiled against five additional cathepsins (Fig. 1). From the text: The figures show. • Figure 1. […] A schematic representation of the structure of the NNPI is given to the left.
For data set [2], the target named is T1, CTSL (Homo sapiens, UniProt P07711).
T1 construct: purchased R&D systems 952-CY-010
Description: FRET assay on cathepsin L (CTSL). In kind it is biochemical. To be noted: substrate Z-Leu-Arg-AMC, inhibitor preincubated 30 minutes, n=3. The procedure:
(§1) In brief, CTSK or CTSL was diluted to 20 µg/ml or 40 µg/ml respectively, in Assay Buffer (50 mM MES, 5 mM DTT, 1 mM EDTA, 0.005% (w/v) Brij-35, pH 6.0), and incubated on ice for 15 minutes. After activation, CTSK or CTSL was diluted to 0.02 µg/ml in Assay Buffer. The substrate peptide Z-Leu-Arg-AMC (R&D systems, cat #ES008) was then diluted to 20 µM in Assay buffer (40 µM for CTSL).
(§2) Next, 50 µl of the enzyme solution was loaded in a 96-well plate, inhibitors to be tested were added to the enzyme and incubated for 30 minutes, and then the reaction was started by adding 50 µl of the fluorogenic substrate. A substrate blank containing 50 µl of Assay Buffer and 50 µl of substrate without any cathepsin was included. Fluorescent emission was measured with SpectraMax iD3 (Molecular Devices) in kinetic mode for 60 minutes (excitation: 380 nm, emission: 460 nm).

Data set [3] has as its target T1, CTSL. Description: FRET assay cathepsin L. The data set is classed as biochemical. As to conditions: result in words, compared with other NNPIs (Fig 2h-j). As for the experimental part:
as §1, §2
A library of 32 NNPIs was screened by FRET assay on CTSK and CTSL by using 384-well plates. For each of the amino acid positions from 2 to 7 in the original NNPI-E15 structure, 6 different amino acid substitutions were tested (A, L, T, W, E or R). The final concentrations of enzyme and substrate were the same as the ones described above for the respective FRET assays. The final reaction volume per well was 20 µl. The inhibitor concentration was 30 nM. Fluorescent emission was measured with a BioTek Neo HTS plate reader.

The nature of data set [4]: Solubility (remark in text, no method). In kind it is physicochemical.

T1 sequence (P07711 114-333): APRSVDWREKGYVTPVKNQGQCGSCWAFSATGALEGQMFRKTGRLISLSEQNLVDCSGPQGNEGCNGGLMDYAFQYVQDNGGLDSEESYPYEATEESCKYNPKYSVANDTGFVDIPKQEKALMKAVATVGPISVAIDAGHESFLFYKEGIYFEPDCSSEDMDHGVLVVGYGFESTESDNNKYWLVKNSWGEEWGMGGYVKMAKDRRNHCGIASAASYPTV

For the compound `CC[C@H](C)[C@H](NC(=O)[C@@H](NC(=O)/C=C/CNC(=O)[C@H](CC(C)C)NC(=O)[C@H](CCCNC(=N)N)NC(=O)[C@H](CCCNC(=N)N)NC(=O)[C@@H](N)CCCCN)C(C)C)C(=O)N[C@@H](CCCNC(=N)N)C(N)=O` [NNPI-F17, KRRL(Y)VIR] (HELM PEPTIDE1{K.R.R.L.[O=C(/C=C/CN[*:1])[*:2]].V.I.R.[am]}$$$$V2.0; N-terminus and C-terminus assumed), the selectivity entry in data set [1] is “good selectivity”. What is called IC50 is the point on the concentration scale where inhibition reaches its midpoint. A high value points to lower potency. As for `CC(C)C[C@H](NC(=O)[C@H](CCCNC(=N)N)NC(=O)[C@@H](N)CCCCN)C(=O)N[C@@H](Cc1c[nH]c2ccccc12)C(=O)NC/C=C/C(=O)N[C@H](C(=O)N[C@@H](CC(C)C)C(=O)N[C@@H](Cc1c[nH]c2ccccc12)C(N)=O)C(C)C` [NNPI-G14, KRLW(Y)VLW] (HELM PEPTIDE1{K.R.L.W.[O=C(/C=C/CN[*:1])[*:2]].V.L.W.[am]}$$$$V2.0), the selectivity entry in data set [1] is “good selectivity”. The same compound had an IC50 against CTSL [2] of 1.7 nM. In the case of “KRLW(Y)VMW [NNPI-G12] [listing 1 of 2 here]”, the “inhibitory potency on CTSL” value at CTSL [3] is “most potent inhibitor”.

On to “KRLW(Y)VMW [NNPI-G12] [listing 2 of 2 here]”, for which the solubility result in data set [4] is given as “poor”.
